Experimental data published in ChEMBL document CHEMBL1201862, “PubChem BioAssay data set” (2004).
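How tested: cells in 96-well plates exposed to compound for 48 hours at five concentrations. Here, GI50 denotes the concentration required for 50% inhibition of growth.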 Activity calls are given as the source filed them. No stated cut-off is given here; in the data, active = GI50 up to about 1.1 µM and inactive = higher.

What was measured:
Test in all cases: NCI tumour cell line growth inhibition, 48 h
T47D = test system: T47D
EKVX = test system: EKVX
OVCAR-8 = test system: OVCAR-8
UO-31 = test system: UO-31
Hs-578T = test system: Hs-578T
NCI-H226 = test system: NCI-H226
UACC-62 = test system: UACC-62
KM12 = test system: KM12
SK-OV-3 = test system: SK-OV-3
PC-3 = test system: PC-3
RXF 393 = test system: RXF 393
786-0 = test system: 786-0
M14 = test system: M14
RPMI-8226 = test system: RPMI-8226
COLO 205 = test system: COLO 205
MOLT-4 = test system: MOLT-4
HT-29 = test system: HT-29
OVCAR-4 = test system: OVCAR-4
CCRF-CEM = test system: CCRF-CEM

| SMILES | GI50 (T47D) | GI50 (EKVX) | GI50 (OVCAR-8) | GI50 (UO-31) | GI50 (Hs-578T) | GI50 (NCI-H226) | GI50 (UACC-62) | GI50 (KM12) | GI50 (SK-OV-3) | GI50 (PC-3) | GI50 (RXF 393) | GI50 (786-0) | GI50 (M14) | GI50 (RPMI-8226) | GI50 (COLO 205) | GI50 (MOLT-4) | GI50 (HT-29) | GI50 (OVCAR-4) | GI50 (CCRF-CEM) |
| --- | --- | --- | --- | --- | --- | --- | --- | --- | --- | --- | --- | --- | --- | --- | --- | --- | --- | --- | --- |
| C1CCNCC1.S=C(S)N1CCCCC1 | 91 µM (inactive) | 111 µM (inactive) | 61.1 µM (inactive) | 58.7 µM (inactive) | 163 µM (inactive) | 192 µM (inactive) | 0.601 µM (active) | 2.26 µM (inactive) | 92.5 µM (inactive) | 37.7 µM (inactive) | 190 µM (inactive) | 97.3 µM (inactive) | 25.4 µM (inactive) | 3.75 µM (inactive) |  |  |  |  |  |
| Cc1cc(=O)nc(S(=O)(=O)NC(=S)Nc2ccc(Br)cc2)[nH]1 | > 100 µM (inactive) | 42.1 µM (inactive) | > 100 µM (inactive) | > 100 µM (inactive) | > 100 µM (inactive) | > 100 µM (inactive) | > 100 µM (inactive) |  | > 100 µM (inactive) | > 100 µM (inactive) | 20.5 µM (inactive) | > 100 µM (inactive) | > 100 µM (inactive) | 33.4 µM (inactive) | > 100 µM (inactive) | 36 µM (inactive) | > 100 µM (inactive) | 93.5 µM (inactive) |  |
| COc1ccc(C(Nc2ccccn2)c2cc(C(C)(C)C)cc(C(C)(C)C)c2O)cc1 (configuration not stated) | 6.67 µM (inactive) | 36 µM (inactive) | 43.4 µM (inactive) | 29.9 µM (inactive) | 6.07 µM (inactive) | 21.3 µM (inactive) | 17 µM (inactive) | 14.9 µM (inactive) | 19.5 µM (inactive) | 21.8 µM (inactive) | 7.74 µM (inactive) | 21.4 µM (inactive) | 16.4 µM (inactive) | 23.1 µM (inactive) | 19 µM (inactive) |  | 22 µM (inactive) | 34.4 µM (inactive) |  |
| COc1ccc(OC)c(C2CCc3cnc4nc(N)nc(N)c4c3C2)c1 (configuration not stated) | > 100 µM (inactive) | > 100 µM (inactive) | 91.2 µM (inactive) | 37.4 µM (inactive) | > 100 µM (inactive) |  | 74 µM (inactive) | > 100 µM (inactive) | > 100 µM (inactive) | > 100 µM (inactive) | 33.6 µM (inactive) | 66.7 µM (inactive) | 92.3 µM (inactive) | > 100 µM (inactive) | > 100 µM (inactive) | > 100 µM (inactive) | 70.1 µM (inactive) | > 100 µM (inactive) | > 100 µM (inactive) |
| COC(=O)c1ccc(NCc2c(O)ccc(O)c2Br)cc1Cl | 19.6 µM (inactive) | 14.6 µM (inactive) | 14.7 µM (inactive) | 15.8 µM (inactive) | 25.1 µM (inactive) | 31.5 µM (inactive) | 15.7 µM (inactive) | 15.3 µM (inactive) | > 100 µM (inactive) | 13.8 µM (inactive) |  | 18.4 µM (inactive) | 17.5 µM (inactive) | 3.56 µM (inactive) | 18.1 µM (inactive) | 1.36 µM (inactive) | 20.7 µM (inactive) | 18.2 µM (inactive) | 0.367 µM (active) |
| NC1=NCC(CN2CCCC2)O1 (configuration not stated) | > 100 µM (inactive) | > 100 µM (inactive) | > 100 µM (inactive) | > 100 µM (inactive) | > 100 µM (inactive) |  | > 100 µM (inactive) | > 100 µM (inactive) | > 100 µM (inactive) | > 100 µM (inactive) | > 100 µM (inactive) | > 100 µM (inactive) | > 100 µM (inactive) | > 100 µM (inactive) | > 100 µM (inactive) | > 100 µM (inactive) | > 100 µM (inactive) | > 100 µM (inactive) | > 100 µM (inactive) |
